Data published in patent US11052154B2, “Ras protein degradation inducing molecule and pharmaceutical composition” (Tokyo University of Science Foundation, priority 2016, dated 2021).

Molecular target: T1, wild-type K-Ras protein (Homo sapiens, UniProt P01116)
T1 construct: expressed in transfected cells; host or cells: HeLa
Assay: Degradation (knockdown) of wild-type K-Ras protein forcibly expressed in HeLa cells, Western blot analysis
Format: cell-based
Details: FIG. 2
Procedure: In Example 3, degradation (knockdown) of a forcibly expressed wild-type K-Ras protein in HeLa cells through TUS-007 was evaluated by Western blot analysis.
A plasmid expressing the wild-type K-Ras protein (K-Ras-WT) was prepared, as in Example 2.
As in Example 2, the plasmid was introduced into HeLa cells to transiently overexpress the wild-type K-Ras protein (specifically, a fusion protein of the wild-type K-Ras protein and GFP through a HA tag) or a DsRed protein for comparison in the cells. HeLa cells into which the plasmid had been introduced were seeded in a 24-well plate at a cell density of 4×10^4 cells/well, and then cultured under conditions of 37° C. and 5 vol % CO2 for 40 hours.
Culture was performed for 40 hours after introduction of the plasmid, and then TUS-007 was added to HeLa cells as follows. […]
After electrophoresis, proteins were transferred to a PVDF membrane (Immobion™-P, Millipore) under conditions of 100 V and 120 minutes using a tank-type blotting device and a transfer buffer (25 mM Tris-HCl, 195 mM glycine, 0.01% SDS, 15% methanol). […] Subsequently, the membrane was treated with a chemiluminescence reagent Immobilon™ Western (Millipore), and then chemiluminescence was detected using a lumino image analyzer LAS-3000 (FUJIFILM Corporation). […]

T1 sequence (P01116 1-188 isoform P01116-2): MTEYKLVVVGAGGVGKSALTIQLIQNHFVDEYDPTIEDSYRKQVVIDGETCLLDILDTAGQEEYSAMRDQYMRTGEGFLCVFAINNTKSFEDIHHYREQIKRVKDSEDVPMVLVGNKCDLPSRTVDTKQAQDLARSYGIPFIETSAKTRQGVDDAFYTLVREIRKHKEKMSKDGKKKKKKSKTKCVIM

`CCC(C)[C@H](NC(=O)CCCCCCNC(=O)[C@H](CC(C)C)NC(=O)CNC(=O)c1cc(Cl)ccc1Cl)C(=O)Nc1ccc2[nH]c(Cc3c[nH]c4ccccc34)nc2c1` (stereo in doubt) [TUS-007] was tested, and the “amount of the wild-type K-Ras protein (Western blot)” value (24 hours after addition, relative to control (DMSO)) was “the amount of the wild-type K-Ras protein was reduced” and the “amount of the wild-type K-Ras protein when both TUS-007 and MLN2238 were added (Western blot)” value (MLN2238 co-added, vs control (DMSO)) was “the amount of the wild-type K-Ras protein was increased as compared with the amount of the control (DMSO)”.
